In US20050075284A1, “Pharmaceutical compositions comprising vip-related peptides for the treatment of sexual disorders” (priority 2001, published 2005):
Entries after “also recorded” stand apart in the source; their conditions may differ. Where no end group is shown, it is not given here.

Assays:
vaginal muscle = test: Rabbit vaginal contraction in organ bath (force transducer); assay type: cell-based, New Zealand female rabbit
Description: The vagina of 12-week-old New Zealand female rabbit was removed, exiced to 1 cm length and immersed in 10 ml of capacity organ bath connected to an external reservoir of Krebs-Henseleit in constant temperature of 37° C. The solution was oxygenated (95%O2/[…]). The effect of VIP and SNV on vaginal contraction was measured by attaching the vaginal muscle to a force transducer.

[1] = tested on: uterine smooth muscle activity and vaginal blood flow; details: systemic administration to females; cited from earlier work
penile erection = details: in the male; cited from earlier work
cGMP formation = details: versus VIP; cited from earlier work
[2] = cited from earlier work

Row | Substance | effect on vaginal contraction (vaginal muscle; 0.3 μM peptide, preliminary results, FIG. 1) | uterine smooth muscle activity [1] | vaginal blood flow [1] | penile erection (penile erection) | effect on contraction force (inotropic effect) (vaginal muscle; 0.3 μM peptide, 0.5 μM phenylephrine, FIG. 2) | effect on rate of vaginal contraction (vaginal muscle; 0.3 μM peptide, contraction stimulated by 0.5 μM phenylephrine, FIG. 2) | effect on vaginal contraction at high concentration (vaginal muscle; 1.5 μM peptide (b76 prints 1.5 M), contraction stimulated by 0.5 μM phenylephrine, FIG. 3) | potency in enhancing cGMP formation relative to VIP (cGMP formation) [fold] | bioavailability [2]
1 | vasoactive intestinal peptide (HSDAVFTDNYTRLRKQMAVKKYLNSILN; ends and bridges not checked; UniProt P01282 125-152, looked up) [VIP] | neutralized vaginal contraction | decrease uterine smooth muscle activity | increase vaginal blood flow | induces penile erection |  |  |  |  | 
2 | Stearoyl-norleucine^17-VIP [SNV] |  |  |  |  | reduced the contraction force | attenuated the rate of vaginal contraction | blocked vaginal contraction; also recorded: neutralized vaginal contraction | 1000 | increased stability and bioavailability
